Results: the NIST ThermoML archive (doi:10.1016/j.jct.2007.05.016)

Assay: xn = mol fraction of the nth substance listed
Details: 101 kPa, Liquid; for speed of sound: Sing-around technique in a fixed-path interferometer

CCCCCCCCCC [decane] + CCCCO
Details | mass density, 298.15 K [kg/m3] | mass density, 303.15 K [kg/m3] | mass density, 308.15 K [kg/m3] | speed of sound, 298.15 K [m/s] | speed of sound, 303.15 K [m/s] | speed of sound, 308.15 K [m/s] | viscosity, 298.15 K [mPa·s]
x2 = 0 | 726.806 | 723.042 | 719.23 | 1234.8 | 1215.2 | 1195.6 | 0.852
x2 = 0.0678 | 728.769 | 724.903 | 721.031 | 1230.4 | 1210.6 | 1191.9 | 0.845
x2 = 0.1105 | 730.259 | 726.415 | 722.511 | 1228.8 | 1209.1 | 1189.4 | 0.855
x2 = 0.1614 | 732.194 | 728.365 | 724.437 | 1227.3 | 1207.6 | 1187.9 | 0.868
x2 = 0.2372 | 735.44 | 731.639 | 727.679 | 1225.4 | 1206.1 | 1185.5 | 0.895
x2 = 0.3068 | 738.779 | 734.994 | 731.004 | 1224.1 | 1204.5 | 1184.6 | 0.931
x2 = 0.4278 | 745.484 | 741.679 | 737.66 | 1222.9 | 1203.7 | 1183.8 | 1.019
x2 = 0.5071 | 750.606 | 746.798 | 742.769 | 1222.8 | 1203.8 | 1184.3 | 1.102
x2 = 0.5547 | 754.019 | 750.194 | 746.151 | 1222.9 | 1203.9 | 1184.8 | 1.164
x2 = 0.6068 | 758.098 | 754.237 | 750.219 | 1223.4 | 1204.5 | 1185.6 | 1.244
x2 = 0.7032 | 766.65 | 762.82 | 758.774 | 1224.9 | 1206.3 | 1187.6 | 1.432
x2 = 0.8036 | 777.321 | 773.625 | 769.593 | 1227.9 | 1210.2 | 1191.3 | 1.685
x2 = 0.8498 | 782.998 | 779.309 | 775.279 | 1229.9 | 1212.4 | 1194 | 1.843
x2 = 0.9015 | 790.035 | 786.406 | 782.421 | 1232.8 | 1215.7 | 1197.9 | 2.047
x2 = 0.95 | 797.464 | 794.041 | 790.078 | 1236.2 | 1219.9 | 1203.1 | 2.277

CCCCCC [hexane] + CCCCO
Details | mass density, 298.15 K [kg/m3] | mass density, 303.15 K [kg/m3] | mass density, 308.15 K [kg/m3] | speed of sound, 298.15 K [m/s] | speed of sound, 303.15 K [m/s] | speed of sound, 308.15 K [m/s] | viscosity, 298.15 K [mPa·s]
x2 = 0 | 655.072 | 650.369 | 645.767 | 1077.8 | 1055.2 | 1032.9 | 0.313
x2 = 0.0507 | 660.196 | 655.432 | 650.791 | 1077.6 | 1054.9 | 1032.7 | 0.323
x2 = 0.101 | 665.602 | 660.733 | 656.143 | 1079.4 | 1056.8 | 1034.5 | 0.338
x2 = 0.1524 | 671.434 | 666.54 | 661.908 | 1082.5 | 1059.9 | 1037.6 | 0.356
x2 = 0.2574 | 684.29 | 679.54 | 674.857 | 1091.7 | 1069.1 | 1046.8 | 0.409
x2 = 0.379 | 700.46 | 696.019 | 691.525 | 1106.3 | 1083.7 | 1062 | 0.505
x2 = 0.4125 | 705.163 | 700.869 | 696.345 | 1111.1 | 1088.5 | 1066.7 | 0.547
x2 = 0.4502 | 710.564 | 706.47 | 701.99 | 1116.7 | 1094.1 | 1072.3 | 0.587
x2 = 0.5121 | 719.663 | 715.869 | 711.606 | 1126.5 | 1103.9 | 1082.5 | 0.679
x2 = 0.6005 | 733.301 | 730.025 | 725.938 | 1141.9 | 1120.8 | 1099.2 | 0.854
x2 = 0.7004 | 749.66 | 746.763 | 742.943 | 1162.2 | 1141.1 | 1120.6 | 1.11
x2 = 0.8202 | 770.812 | 767.985 | 764.319 | 1190.9 | 1171.5 | 1151.5 | 1.541
x2 = 0.8523 | 776.78 | 773.953 | 770.292 | 1199 | 1179.9 | 1160.3 | 1.685
x2 = 0.8957 | 785.079 | 782.252 | 778.547 | 1210.5 | 1192.1 | 1172.9 | 1.901
x2 = 0.9476 | 795.298 | 792.462 | 788.743 | 1225.1 | 1207.9 | 1189.6 | 2.209

CCCCCCCC [octane] + CCCCO
Details | mass density, 298.15 K [kg/m3] | mass density, 303.15 K [kg/m3] | mass density, 308.15 K [kg/m3] | speed of sound, 298.15 K [m/s] | speed of sound, 303.15 K [m/s] | speed of sound, 308.15 K [m/s] | viscosity, 298.15 K [mPa·s]
x2 = 0 | 698.58 | 694.497 | 690.416 | 1172.7 | 1152.1 | 1131.7 | 0.518
x2 = 0.0563 | 701.448 | 697.299 | 693.192 | 1169.8 | 1149.2 | 1128.6 | 0.525
x2 = 0.1091 | 704.623 | 700.473 | 696.337 | 1169.4 | 1148.8 | 1128.2 | 0.54
x2 = 0.1579 | 707.716 | 703.646 | 699.455 | 1169.4 | 1149 | 1128.1 | 0.55
x2 = 0.2245 | 712.309 | 708.268 | 704.085 | 1170.1 | 1149.5 | 1129.2 | 0.585
x2 = 0.3117 | 718.911 | 714.997 | 710.775 | 1172.1 | 1151.8 | 1131.4 | 0.636
x2 = 0.4013 | 726.41 | 722.577 | 718.357 | 1175.4 | 1155.4 | 1135.6 | 0.708
x2 = 0.4519 | 731.021 | 727.253 | 723.057 | 1177.8 | 1158.1 | 1138 | 0.762
x2 = 0.5106 | 736.716 | 733.019 | 728.779 | 1181.2 | 1161.7 | 1141.9 | 0.837
x2 = 0.6032 | 746.6 | 742.919 | 738.734 | 1187.9 | 1169.1 | 1149.6 | 0.992
x2 = 0.7087 | 759.397 | 755.747 | 751.584 | 1197.5 | 1179.4 | 1160.3 | 1.232
x2 = 0.8063 | 772.907 | 769.349 | 765.239 | 1208.9 | 1191.2 | 1172.8 | 1.539
x2 = 0.8492 | 779.452 | 775.973 | 771.885 | 1214.9 | 1197.5 | 1179.4 | 1.711
x2 = 0.909 | 789.203 | 786.026 | 781.895 | 1223.7 | 1207.2 | 1189.3 | 1.991
x2 = 0.956 | 797.537 | 794.495 | 790.449 | 1231.9 | 1215.5 | 1198.8 | 2.262
